Test results reported in ChEMBL document CHEMBL1201862, “PubChem BioAssay data set” (2004).
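Where inhibition never reached the appropriate level, the endpoint shown equals the highest concentration tested. Otherwise, values were interpolated linearly from a five-concentration, 48-hour dose response in 96-well plates. Abbreviation: GI50, concentration required for 50% inhibition of growth.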 The source made the active and inactive calls. Rule as the data show it: active = GI50 up to about 1.1 µM and inactive = higher.

Key:
Experiment in all cases: NCI tumour cell line growth inhibition, 48 h
[1] = test system: NCI-H460
[2] = test system: SK-MEL-28
[3] = test system: HOP-92
[4] = test system: SNB-75
[5] = test system: OVCAR-8
[6] = test system: UO-31
[7] = test system: IGROV-1
[8] = test system: NCI-H522
[9] = test system: A498
[10] = test system: KM12
[11] = test system: SNB-19
[12] = test system: SK-MEL-5
[13] = test system: MDA-N
[14] = test system: T47D
[15] = test system: HT-29
[16] = test system: LOX IMVI
[17] = test system: MCF7
[18] = test system: SK-MEL-2
[19] = test system: MDA-MB-435
[20] = test system: U-251
[21] = test system: Malme-3M
[22] = test system: SN12C
[23] = test system: SF-295
[24] = test system: NCI-H23
[25] = test system: CCRF-CEM
[26] = test system: NCI-H226
[27] = test system: HCT-116
[28] = test system: SK-OV-3
[29] = test system: NCI/ADR-RES
[30] = test system: SF-268
[31] = test system: Hs-578T
[32] = test system: MDA-MB-231
[33] = test system: TK-10
[34] = test system: A549
[35] = test system: RPMI-8226
[36] = test system: HL-60
[37] = test system: SF-539
[38] = test system: PC-3
[39] = test system: CAKI-1
[40] = test system: BT-549
[41] = test system: HCT-15
[42] = test system: DU-145
[43] = test system: COLO 205
[44] = test system: K562
[45] = test system: SR
[46] = test system: EKVX
[47] = test system: OVCAR-3
[48] = test system: UACC-257
[49] = test system: 786-0
[50] = test system: MOLT-4
[51] = test system: HCC 2998
[52] = test system: RXF 393
[53] = test system: M14
[54] = test system: OVCAR-4
[55] = test system: HOP-62
[56] = test system: OVCAR-5
[57] = test system: ACHN
[58] = test system: SW-620
[59] = test system: UACC-62

OC1c2ccccc2[C@@H]2[C@H]1[C@@H](c1ccccc1)C1(Cc3ccccc3C1O)[C@H]2c1ccccc1 (stereo partly specified)
GI50 [1]: 3.13 µM (inactive)
GI50 [2]: 9.55 µM (inactive)
GI50 [3]: 3.35 µM (inactive)
GI50 [4]: 7.73 µM (inactive)
GI50 [5]: 5.45 µM (inactive)
GI50 [6]: 7.52 µM (inactive)
GI50 [7]: 4.37 µM (inactive)
GI50 [8]: 3.03 µM (inactive)
GI50 [9]: 10.1 µM (inactive)
GI50 [10]: 2.77 µM (inactive)
GI50 [11]: 13.6 µM (inactive)
GI50 [12]: 6.21 µM (inactive)
GI50 [13]: 3.85 µM (inactive)
GI50 [14]: 6.71 µM (inactive)
GI50 [15]: 2.29 µM (inactive)
GI50 [16]: 2.49 µM (inactive)
GI50 [17]: 1.99 µM (inactive)
GI50 [18]: 7.06 µM (inactive)
GI50 [19]: 2.82 µM (inactive)
GI50 [20]: 3.92 µM (inactive)
GI50 [21]: 5.53 µM (inactive)
GI50 [22]: 1.77 µM (inactive)
GI50 [23]: 6.75 µM (inactive)
GI50 [24]: 6.4 µM (inactive)
GI50 [25]: 3.13 µM (inactive)
GI50 [26]: 5.28 µM (inactive)
GI50 [27]: 3.03 µM (inactive)
GI50 [28]: 10.9 µM (inactive)
GI50 [29]: 5.36 µM (inactive)
GI50 [30]: 6.7 µM (inactive)
GI50 [31]: 6.93 µM (inactive)
GI50 [32]: 5.22 µM (inactive)
GI50 [33]: 16.1 µM (inactive)
GI50 [34]: 3.86 µM (inactive)
GI50 [35]: 2.84 µM (inactive)
GI50 [36]: 2.01 µM (inactive)
GI50 [37]: 13.4 µM (inactive)
GI50 [38]: 3 µM (inactive)
GI50 [39]: 8.09 µM (inactive)
GI50 [40]: 14.7 µM (inactive)
GI50 [41]: 4.07 µM
GI50 [42]: 9.86 µM (inactive)
GI50 [43]: 1.84 µM (inactive)
GI50 [44]: 3.02 µM (inactive)
GI50 [45]: 1.11 µM (active)
GI50 [46]: 6.35 µM (inactive)
GI50 [47]: 2.36 µM (inactive)
GI50 [48]: 3.93 µM (inactive)
GI50 [49]: 2.96 µM (inactive)
GI50 [50]: 2.45 µM (inactive)
GI50 [51]: 1.91 µM (inactive)
GI50 [52]: 2 µM (inactive)
GI50 [53]: 4.75 µM (inactive)
GI50 [54]: 4.04 µM (inactive)
GI50 [55]: 10.7 µM (inactive)
GI50 [56]: 11.1 µM (inactive)
GI50 [57]: 6.37 µM (inactive)
GI50 [58]: 5.01 µM (inactive)
GI50 [59]: 6.14 µM (inactive)

OC(COc1ccc(Cl)cc1Cl)CN1CCCC1 (stereo unspecified)
GI50 [1]: 91.6 µM (inactive)
GI50 [2]: 37.7 µM (inactive)
GI50 [3]: 75.9 µM (inactive)
GI50 [4]: 50.6 µM (inactive)
GI50 [5]: > 100 µM (inactive)
GI50 [6]: > 100 µM (inactive)
GI50 [7]: > 100 µM (inactive)
GI50 [8]: 52.8 µM (inactive)
GI50 [9]: 38.1 µM (inactive)
GI50 [10]: > 100 µM (inactive)
GI50 [11]: > 100 µM (inactive)
GI50 [12]: 27.9 µM (inactive)
GI50 [13]: 56.6 µM (inactive)
GI50 [14]: > 100 µM (inactive)
GI50 [15]: 24.8 µM (inactive)
GI50 [16]: > 100 µM (inactive)
GI50 [17]: > 100 µM (inactive)
GI50 [18]: > 100 µM (inactive)
GI50 [19]: 74.1 µM (inactive)
GI50 [20]: > 100 µM (inactive)
GI50 [21]: 60.1 µM (inactive)
GI50 [22]: > 100 µM (inactive)
GI50 [23]: 89.7 µM (inactive)
GI50 [24]: > 100 µM (inactive)
GI50 [25]: 87.9 µM (inactive)
GI50 [26]: 88.7 µM (inactive)
GI50 [27]: 87.3 µM (inactive)
GI50 [28]: > 100 µM (inactive)
GI50 [29]: > 100 µM (inactive)
GI50 [30]: > 100 µM (inactive)
GI50 [31]: 58.3 µM (inactive)
GI50 [32]: > 100 µM (inactive)
GI50 [33]: > 100 µM (inactive)
GI50 [34]: > 100 µM (inactive)
GI50 [35]: 57 µM (inactive)
GI50 [36]: 42.7 µM (inactive)
GI50 [37]: > 100 µM (inactive)
GI50 [38]: > 100 µM (inactive)
GI50 [39]: > 100 µM (inactive)
GI50 [40]: 30.5 µM (inactive)
GI50 [41]: > 100 µM
GI50 [42]: > 100 µM (inactive)
GI50 [43]: > 100 µM (inactive)
GI50 [44]: 71.6 µM (inactive)
GI50 [45]: 64.6 µM (inactive)
GI50 [46]: 21.1 µM (inactive)
GI50 [47]: 58.9 µM (inactive)
GI50 [48]: 24.2 µM (inactive)
GI50 [49]: > 100 µM (inactive)
GI50 [50]: 42.6 µM (inactive)
GI50 [51]: 32.9 µM (inactive)
GI50 [52]: > 100 µM (inactive)
GI50 [53]: 20 µM (inactive)
GI50 [54]: > 100 µM (inactive)
GI50 [55]: > 100 µM (inactive)
GI50 [56]: > 100 µM (inactive)
GI50 [57]: > 100 µM (inactive)
GI50 [58]: > 100 µM (inactive)
GI50 [59]: 21.7 µM (inactive)

O=C1c2ccccc2CC12Cc1ccc3c(c1C2)CCC3 (stereo unspecified)
GI50 [1]: 23.7 µM (inactive)
GI50 [2]: 31 µM (inactive)
GI50 [3]: 14 µM (inactive)
GI50 [4]: 20.3 µM (inactive)
GI50 [5]: 28.8 µM (inactive)
GI50 [6]: 23.4 µM (inactive)
GI50 [7]: 25.5 µM (inactive)
GI50 [8]: 4.54 µM (inactive)
GI50 [9]: 85.3 µM (inactive)
GI50 [10]: 24.4 µM (inactive)
GI50 [11]: 48.1 µM (inactive)
GI50 [12]: 15.5 µM (inactive)
GI50 [13]: 19.8 µM (inactive)
GI50 [14]: 19.1 µM (inactive)
GI50 [15]: 13.3 µM (inactive)
GI50 [16]: 12.4 µM (inactive)
GI50 [17]: 16.9 µM (inactive)
GI50 [18]: 15.9 µM (inactive)
GI50 [19]: 16.1 µM (inactive)
GI50 [20]: 16.9 µM (inactive)
GI50 [21]: 13.6 µM (inactive)
GI50 [22]: 26.7 µM (inactive)
GI50 [23]: 25.4 µM (inactive)
GI50 [24]: 28.8 µM (inactive)
GI50 [25]: 16.8 µM (inactive)
GI50 [26]: 22.8 µM (inactive)
GI50 [27]: 16.9 µM (inactive)
GI50 [28]: 33.3 µM (inactive)
GI50 [29]: 4.24 µM (inactive)
GI50 [30]: 30 µM (inactive)
GI50 [31]: 21 µM (inactive)
GI50 [32]: 12 µM (inactive)
GI50 [33]: 2.36 µM (inactive)
GI50 [34]: 17.5 µM (inactive)
GI50 [35]: 19 µM (inactive)
GI50 [36]: 12.6 µM (inactive)
GI50 [37]: 27.5 µM (inactive)
GI50 [38]: 26 µM (inactive)
GI50 [39]: 26.8 µM (inactive)
GI50 [40]: 35.8 µM (inactive)
GI50 [41]: 14.6 µM
GI50 [42]: 34.6 µM (inactive)
GI50 [43]: 19 µM (inactive)
GI50 [44]: 22.3 µM (inactive)
GI50 [45]: 14 µM (inactive)
GI50 [46]: 16.9 µM (inactive)
GI50 [47]: 17.4 µM (inactive)
GI50 [48]: 11.7 µM (inactive)
GI50 [49]: 20.6 µM (inactive)
GI50 [50]: 23.8 µM (inactive)
GI50 [51]: 24.3 µM (inactive)
GI50 [52]: 16.4 µM (inactive)
GI50 [53]: 19.1 µM (inactive)
GI50 [54]: 22.2 µM (inactive)
GI50 [55]: 23.3 µM (inactive)
GI50 [56]: 17.2 µM (inactive)
GI50 [57]: 22.6 µM (inactive)
GI50 [58]: 30.5 µM (inactive)
GI50 [59]: 20.3 µM (inactive)

COC(=N)C1(C#N)NC(c2ccsc2)C(C#N)(C#N)NC1c1ccsc1 (stereo unspecified)
GI50 [1]: > 100 µM (inactive)
GI50 [2]: > 100 µM (inactive)
GI50 [3]: 60.7 µM (inactive)
GI50 [4]: 88.5 µM (inactive)
GI50 [5]: > 100 µM (inactive)
GI50 [6]: > 100 µM (inactive)
GI50 [7]: > 100 µM (inactive)
GI50 [8]: > 100 µM (inactive)
GI50 [9]: > 100 µM (inactive)
GI50 [10]: > 100 µM (inactive)
GI50 [11]: > 100 µM (inactive)
GI50 [12]: > 100 µM (inactive)
GI50 [13]: > 100 µM (inactive)
GI50 [14]: 80.2 µM (inactive)
GI50 [15]: > 100 µM (inactive)
GI50 [16]: > 100 µM (inactive)
GI50 [17]: > 100 µM (inactive)
GI50 [18]: > 100 µM (inactive)
GI50 [19]: > 100 µM (inactive)
GI50 [20]: > 100 µM (inactive)
GI50 [21]: > 100 µM (inactive)
GI50 [22]: > 100 µM (inactive)
GI50 [23]: > 100 µM (inactive)
GI50 [24]: > 100 µM (inactive)
GI50 [25]: > 100 µM (inactive)
GI50 [26]: > 100 µM (inactive)
GI50 [27]: > 100 µM (inactive)
GI50 [28]: > 100 µM (inactive)
GI50 [29]: > 100 µM (inactive)
GI50 [30]: > 100 µM (inactive)
GI50 [31]: > 100 µM (inactive)
GI50 [32]: 76.7 µM (inactive)
GI50 [33]: > 100 µM (inactive)
GI50 [34]: > 100 µM (inactive)
GI50 [35]: > 100 µM (inactive)
GI50 [36]: 78.3 µM (inactive)
GI50 [37]: > 100 µM (inactive)
GI50 [38]: 81.1 µM (inactive)
GI50 [39]: > 100 µM (inactive)
GI50 [40]: > 100 µM (inactive)
GI50 [41]: > 100 µM
GI50 [42]: > 100 µM (inactive)
GI50 [43]: > 100 µM (inactive)
GI50 [44]: > 100 µM (inactive)
GI50 [45]: > 100 µM (inactive)
GI50 [46]: > 100 µM (inactive)
GI50 [47]: > 100 µM (inactive)
GI50 [48]: > 100 µM (inactive)
GI50 [49]: > 100 µM (inactive)
GI50 [50]: > 100 µM (inactive)
GI50 [51]: > 100 µM (inactive)
GI50 [52]: > 100 µM (inactive)
GI50 [53]: > 100 µM (inactive)
GI50 [54]: > 100 µM (inactive)
GI50 [55]: > 100 µM (inactive)
GI50 [56]: > 100 µM (inactive)
GI50 [57]: > 100 µM (inactive)
GI50 [58]: > 100 µM (inactive)
GI50 [59]: > 100 µM (inactive)
